Test results reported in EPA's ToxRefDB 2.

How the values were obtained:
rat [1] = conditions: Subchronic oral toxicity in rodents, sprague dawley, Gavage/Intubation, dose end: 90 day
rat [2] = conditions: Prenatal developmental toxicity study, sprague dawley, Oral, Gavage/Intubation, dose end: 15 GD
rat [3] = conditions: Subchronic inhalation toxicity, sprague dawley, Whole-Body, dose end: 13 week
mouse = conditions: Carcinogenicity, cd1, Oral, Feed, dose end: 78 week, group: systemic
rat [4] = conditions: Neurotoxicity screening battery; sprague dawley; Oral; Feed; dose end: 13 week; group: cannot be grouped; cholinesterase / cholinesterase / cholinesterase / plasma cholinesterase (che) + systemic / in life observation / food consumption / food …
rat [5] = conditions: Prenatal developmental toxicity study, sprague dawley, Oral, Gavage/Intubation, dose end: 15 GD; remark: listed apart in the source
[6] = group: cholinesterase, cholinesterase / cholinesterase / cholinesterase / cholinesterase (che)
[7] = group: systemic, systemic / in life observation / clinical signs / salivation + systemic / pathology gross / liver / misshapen
[8] = group: systemic, systemic / in life observation / clinical signs / salivation + systemic / pathology gross / liver / misshapen + systemic / pathology …
[9] = group: developmental, developmental / developmental malformation / bone / unossified + systemic / in life observation / body weight / fetal weight
[10] = group: maternal, systemic / in life observation / body weight / body weight gain + systemic / in life observation / food consumption / food consumption + …
[11] = group: cholinesterase, cholinesterase / cholinesterase / cholinesterase / brain cholinesterase (che)
[12] = group: cholinesterase, cholinesterase / cholinesterase / cholinesterase / brain cholinesterase (che) + cholinesterase / cholinesterase / cholinesterase / …
[13] = group: systemic, systemic / clinical chemistry / glucose / glucose + systemic / clinical chemistry / alanine aminotransferase (alt/sgpt) / alanine …
[14] = systemic / pathology microscopic / thyroid gland / vacuolization + systemic / pathology microscopic / thyroid gland / hypertrophy
[15] = systemic / pathology microscopic / thyroid gland / vacuolization + systemic / pathology microscopic / thyroid gland / hypertrophy + systemic…
[16] = group: developmental, developmental / developmental landmark / [other] / [other]
[17] = group: maternal, systemic / in life observation / body weight / body weight gain + systemic / in life observation / clinical signs / salivation + systemic / …

CCCCNC(=O)OCC#CI [3-Iodo-2-propynyl-N-butylcarbamate]
LEL (rat [1]; [6]): 75 mg/kg/day
LOAEL (rat [1]; [6]): > 200 mg/kg/day
NEL (rat [1]; [6]): 25 mg/kg/day
NOAEL (rat [1]; [6]): ≥ 200 mg/kg/day
LOAEL (rat [1]; [7]): 25 mg/kg/day
NOAEL (rat [1]; [7]): < 25 mg/kg/day
LEL (rat [1]; [8]): 25 mg/kg/day
NEL (rat [1]; [8]): < 25 mg/kg/day
LEL (rat [2]; [9]): 250 mg/kg/day
LOAEL (rat [2]; [9]): 250 mg/kg/day
NEL (rat [2]; [9]): 75 mg/kg/day
NOAEL (rat [2]; [9]): 75 mg/kg/day
LOAEL (rat [2]; group: maternal, systemic / in life observation / body weight / body weight gain + systemic / in life observation / food consumption / food consumption): 75 mg/kg/day
LEL (rat [2]; [10]): 75 mg/kg/day
NEL (rat [2]; [10]): 25 mg/kg/day
NOAEL (rat [2]; [10]): 25 mg/kg/day
LEL (rat [3]; [11]): 0.11 ppm
LOAEL (rat [3]; [11]): 0.11 ppm
NEL (rat [3]; [12]): 0.0217 ppm
NOAEL (rat [3]; [12]): 0.0217 ppm
LEL (rat [3]; group: systemic, systemic / clinical chemistry / glucose / glucose): 0.11 ppm
LOAEL (rat [3]; [13]): > 0.54 ppm
NEL (rat [3]; [13]): 0.0217 ppm
NOAEL (rat [3]; [13]): ≥ 0.54 ppm
LOAEL (mouse; [14]): 19.8 mg/kg/day
NOAEL (mouse; [14]): < 19.8 mg/kg/day
LEL (mouse; [15]): 19.8 mg/kg/day
NEL (mouse; [15]): < 19.8 mg/kg/day
LEL (rat [4]): 50 mg/kg/day
LOAEL (rat [4]): 50 mg/kg/day
NEL (rat [4]): 10 mg/kg/day
NOAEL (rat [4]): 10 mg/kg/day
LEL (rat [5]; [16]): 250 mg/kg/day
LOAEL (rat [5]; [16]): 250 mg/kg/day
NEL (rat [5]; [16]): 75 mg/kg/day
NOAEL (rat [5]; [16]): 75 mg/kg/day
LEL (rat [5]; [17]): 75 mg/kg/day
LOAEL (rat [5]; [17]): 75 mg/kg/day
NEL (rat [5]; [17]): 25 mg/kg/day
NOAEL (rat [5]; [17]): 25 mg/kg/day
